Data reported in patent US8697636B2 (priority 2007, dated 2014).
In brackets after ≈: the same amount, converted by molar mass.

Tests used:
C. perfringens = assay: microbe, parasite or virus in culture; assay type: cell-based; conditions: Clostridium perfringens, read-out: minimum inhibitory concentration
[1] = system: pathogenic Clostridium sp.; conditions: cited from earlier work

Molecule | MIC (C. perfringens) [µg/mL] | activity against pathogenic Clostridium sp. [1]
Cc1ncc([N+](=O)[O-])n1CCO [metronidazole] | 25 (≈ 146 µM) | –
ruminococcin A | – | active
